Results on one compound are retold here after patent publication US9119396B2, “Method for promoting plant growth” (SUMITOMO CHEMICAL COMPANY, LIMITED, priority 2011, dated 2015).

Common to all, as to format: in vivo
Experiment [1] has as its system Corn (cultivar: Kuromochi). The experiment is described as follows: Test Example 3: reduction of low-temperature stress by treatment of corn seeds. The note with it: corn seed treatment, low-temperature stress 2.5±1° C. 4 days, then 4 days at 27° C. How it is done: Evaluation Test for Reduction of Low-Temperature Stress by Treatment of Corn Seeds Corn (cultivar: Kuromochi) A blank slurry solution containing 10% (V/V) color coat red (Becker Underwood, Inc.), 10% (V/V) CF-Clear (Becker Underwood, Inc.) and 1.66% Maxim 4FS (Syngenta) was prepared. A slurry solution was prepared by dissolving the present compound 1 in the blank slurry solution such that 0.5 g, 5 g or 50 g of the compound is applied to each 100 kg of corn seeds. In a 50-ml centrifuge tube (manufactured by BD Japan), 0.35 ml of the slurry solution was placed for each 14.4 g of corn seeds and stirred until the solution was dried, thereby coating the seeds. In addition, seeds were coated with the blank slurry solution and used as seeds for a non-treated group. One of the treated corn seeds was sown in culture soil (AISAI) in each pot (55 mm in diameter×58 mm in height) and cultivated for 10 days under the conditions of a temperature of 27° C., an illuminance of 5,000 lux, and a day length of 16 hours. The grown seedlings were used for the test. The pots at 10 days after the sowing were placed into an artificial weather control room (VHT-2-15P-NC2-S, manufactured by Nippon Medical & Chemical Instruments Co., Ltd) and cultivated for 4 days under the following conditions: • temperature: 2.5±1° C., day length: 16 hours, and illuminance: 5,000 lux. <Evaluation Method> After the low-temperature stress treatment, the plants were cultivated for 4 days under the conditions of a temperature of 27° C., an illuminance of 5,000 lux, and a day length of 16 hours. Then, the fresh weight of the overground part of the plants was measured. The experiment was performed in five replications for each treatment condition and the average weight per individual was calculated. As a result, the fresh weight of the overground part of plants in the treated group of applying 0.5 g, 5 g or 50 g of the present compound 1 to each 100 kg of seeds was much heavier than that in the non-treated group.

Experiment [2] concerns Rice (cultivar: Nipponbare). Nature of the experiment: Test Example 4: reduction of low-temperature stress by immersion treatment of rice. The note with it: rice seedlings, immersion at 1 ppm for 2 days; low-temperature stress 4° C. 5 days, then 4 days at 25° C. The procedure:
Evaluation Test for Reduction of Low-Temperature Stress by Immersion Treatment of Rice Rice (cultivar: Nipponbare) A necessary amount of rice seeds was immersed in an aqueous solution of 1,000 ppm of Benlate, and incubated at 30° C. overnight under dark conditions. The aqueous solution of Benlate was replaced with distilled water, and the seeds were further incubated at 30° C. overnight under dark conditions to stimulate the germination of the seeds. A filter paper was placed on the holes of a plug tray having 406 holes, and the rice seeds obtained after the stimulation of germination were sown on the filter paper. To the rice seeds was added a kimura B solution for hydroponics (see Plant Science 119: 39-47 (1996)) at ½ concentration, and cultivated for 5 days in an artificial weather control room under the following conditions: • temperature: 28° C. in daytime/23° C. in night, humidity: 70%, illuminance: 8,500 lux, and day length: 12 hours. <Compound Treatment> A DMSO solution of 1,000 ppm of the present compound 1 was prepared, and diluted with a kimura B solution for hydroponics at ½ concentration. The solution for hydroponics containing the compound was dispensed into the wells of a 24-well plate at 2 ml per well. […] In the treated group, the experiment was performed in duplication and the average value of the green area per individual was calculated. […]

Experiment [3] has as its system Rice (cultivar: Nipponbare). The experiment is described as follows: Test Example 6: reduction of drought stress by immersion treatment of rice. The note with it: hydroponic solution 10 ppm for 14 days, drought stress 2 days, then 14 days cultivation. The procedure: Evaluation Test for Reduction of Drought Stress by Immersion Treatment of Rice Rice (cultivar: Nipponbare) A necessary amount of rice seeds was immersed in an aqueous solution of 1,000 ppm of Benlate, and incubated at 30° C. overnight under dark conditions. The aqueous solution of Benlate was replaced with distilled water, and the seeds were further incubated at 30° C. overnight under dark conditions. A filter paper was placed on the holes of a plug tray having 406 holes, and the rice seeds treated as above were sown on the filter paper. To the rice seeds were added a kimura B solution for hydroponics (see Plant Science 119: 39-47 (1996)) at ½ concentration and a 1/10,000 volume of a DMSO solution containing the present compound 1 at 100,000 ppm, and cultivated for 14 days under the conditions of a temperature of 28° C. in daytime/23° C. in night, a humidity of 60%, an illuminance of 8500 lux, and a day length of 12 hours. […] Fourteen (14) days after the treatment, the fresh weight of the overground parts of five test plants in each treated group was measured. The experiment was performed in three replications in each treated group and the average value was calculated. […]

Turning to `COC(=O)c1cc2cc(C(F)(F)F)ccc2s1` [compound 1], the “fresh weight of the overground part of plants vs non-treated group” value in experiment [1] (0.5 g per 100 kg of seeds), in experiment [1] (5 g per 100 kg of seeds), in experiment [1] (50 g per 100 kg of seeds) and in experiment [3] was “much heavier” in each case. Besides, the “green area of the overground part of the plant vs non-treated group” value in experiment [2] was “much larger”.
